How the values were obtained:
Assay in all cases: viability relative to DMSO control (fraction); higher = less drug effect (more viable cells)
Settings in all cases: 48 h
[1] = system: primary T-PLL patient cells (S008)
Summary of the method: (§1)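 In 384-well plates with compounds pre-plated at five concentrations (one well per concentration), primary mononuclear tumour cells were plated at 4 × 10^4 cells per well. The cells came from blood or bone marrow by Ficoll isolation or from processed lymph node, and were used fresh or cryopreserved. Culture ran for 48 h at 37 °C and 5% CO2 in RPMI-1640 containing penicillin/streptomycin, L-glutamine and human serum. Viability was read as CellTiter-Glo luminescence, normalised to the median of 16 inner DMSO wells.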

[2] = system: primary AML patient cells (S055)
Summary of the method: as §1

[3] = system: primary AML patient cells (S091)
Summary of the method: as §1

[4] = system: primary AML patient cells (S019)
Summary of the method: as §1

[5] = system: primary MCL patient cells (S041)
Summary of the method: as §1

[6] = system: primary DLBCL patient cells (S082)
Summary of the method: as §1

[7] = system: primary AML patient cells (S037)
Summary of the method: as §1

[8] = system: primary AML patient cells (S002)
Summary of the method: as §1

[9] = system: primary AML patient cells (S025)
Summary of the method: as §1

[10] = system: primary AML patient cells (S071)
Summary of the method: as §1

[11] = system: primary AML patient cells (S089)
Summary of the method: as §1

[12] = system: primary AML patient cells (S009)
Summary of the method: as §1

[13] = system: primary AML patient cells (S072)
Summary of the method: as §1

[14] = system: primary AML patient cells (S079)
Summary of the method: as §1

Nc1ncn([C@H]2C[C@H](O)[C@@H](CO)O2)c(=O)n1 [Decitabine (Dacogen)] showed a viability ([1]; 0.024 µM) of 0.968, a viability ([1]; 0.12 µM) of 1.02 and a viability ([1]; 0.6 µM) of 0.953. It also gave a viability ([1]; 3 µM) of 1.08, a viability ([1]; 15 µM) of 1.01 and a viability ([2]; 0.024 µM) of 1.05. The viability ([2]; 0.12 µM) was 0.939, the viability ([2]; 0.6 µM) was 1.03 and the viability ([2]; 3 µM) was 0.972. For the same molecule, the viability ([2]; 15 µM) was 1.02, the viability ([3]; 0.024 µM) was 0.958 and the viability ([3]; 0.12 µM) was 1.09. The viability ([3]; 0.6 µM) was 0.83, the viability ([3]; 3 µM) was 0.913 and the viability ([3]; 15 µM) was 0.617. For the same molecule, the viability ([4]; 0.024 µM) was 1.11, the viability ([4]; 0.12 µM) was 0.753 and the viability ([4]; 0.6 µM) was 1.04. For the same molecule, the viability ([4]; 3 µM) was 0.684, the viability ([4]; 15 µM) was 0.918 and the viability ([5]; 0.024 µM) was 1.06. For the same molecule, the viability ([5]; 0.12 µM) was 0.969, the viability ([5]; 0.6 µM) was 1.06 and the viability ([5]; 3 µM) was 0.961. For the same molecule, the viability ([5]; 15 µM) was 0.984, the viability ([6]; 0.024 µM) was 0.993 and the viability ([6]; 0.12 µM) was 0.936. For the same molecule, the viability ([6]; 0.6 µM) was 0.973, the viability ([6]; 3 µM) was 0.908 and the viability ([6]; 15 µM) was 0.967. For the same molecule, the viability ([7]; 0.024 µM) was 1.01, the viability ([7]; 0.12 µM) was 0.925 and the viability ([7]; 0.6 µM) was 0.981. The viability ([7]; 3 µM) was 0.91, the viability ([7]; 15 µM) was 0.955 and the viability ([8]; 0.024 µM) was 1.03. For the same molecule, the viability ([8]; 0.12 µM) was 1.03, the viability ([8]; 0.6 µM) was 0.952 and the viability ([8]; 3 µM) was 0.892. The viability ([8]; 15 µM) was 0.903, the viability ([9]; 0.024 µM) was 0.968 and the viability ([9]; 0.12 µM) was 0.953. For the same molecule, the viability ([9]; 0.6 µM) was 0.912, the viability ([9]; 3 µM) was 0.694 and the viability ([9]; 15 µM) was 0.535. The viability ([10]; 0.024 µM) was 0.995, the viability ([10]; 0.12 µM) was 0.948 and the viability ([10]; 0.6 µM) was 0.934. The viability ([10]; 3 µM) was 0.792, the viability ([10]; 15 µM) was 0.756 and the viability ([11]; 0.024 µM) was 0.729. It also gave a viability ([11]; 0.12 µM) of 1.06, a viability ([11]; 0.6 µM) of 0.632 and a viability ([11]; 3 µM) of 1.22. For the same molecule, the viability ([11]; 15 µM) was 0.642, the viability ([12]; 0.024 µM) was 0.915 and the viability ([12]; 0.12 µM) was 0.951. It also gave a viability ([12]; 0.6 µM) of 0.854, a viability ([12]; 3 µM) of 0.859 and a viability ([12]; 15 µM) of 0.702. It also gave a viability ([13]; 0.024 µM) of 1.02, a viability ([13]; 0.12 µM) of 0.93 and a viability ([13]; 0.6 µM) of 0.964. It also gave a viability ([13]; 3 µM) of 0.83, a viability ([13]; 15 µM) of 0.811 and a viability ([14]; 0.024 µM) of 1.02. It also gave a viability ([14]; 0.12 µM) of 0.953, a viability ([14]; 0.6 µM) of 0.989 and a viability ([14]; 3 µM) of 0.889. For the same molecule, the viability ([14]; 15 µM) was 0.814.
